The structures appear in SMILES notation.

Series [1] has as its system T cells. As to the kind of experiment: Inhibition of T cell proliferation (antigen PPD induced, [3H]thymidine incorporation). The series is classed as cell-based. The settings on record: PPD (10 μg/ml), 144 hours culture, mean of triplicate cultures. On the procedure:
The chemical compounds used according to the invention prevent immunological proliferation by selective inhibition of the Ca^2+-activated K-channels in T- and B-lymphocytes. This effect may be verified using various proliferation assays. In this experiment the proliferative assay described by Ødum et al [Ødum N, Kanner S B, Ledbetter J A, & Svejgaard A; J. Immunol. 1993 150 (12) 5289-5298] was used.
Assays were performed in culture medium (RPMI 1640; available from Gibco, Grand Island, N.Y.) supplemented with 10% pooled human serum, 2 mM L-glutamine, 100 μg/ml penicillin, and 100 μg/ml streptomycin (available from Novo Nordisk, Copenhagen, Denmark) in 96-well round bottom tissue culture plates (available from Nunc, Roskilde, Denmark) with a final volume of 200 μl.
T cells were pre-incubated for three hours with the test compounds before addition of antigen (PPD, purified protein derivative, 10 μg/ml). T cells were cultured at 5×10^4 cells/well for 144 hours. Twelve hours before harvest, [^3H]thymidine ([…]) was added. The cells were harvested onto glass fibre filters, and the [^3H]thymidine incorporation was measured in a scintillation counter. The results were expressed as mean counts per minute (cpm) from triplicate cultures.
A general note: Uptake of a labelled nucleoside into DNA is a usual measure of proliferation.

Turning to `CC(C)c1cccc(C(C)C)c1-c1cccnc1` [Compound 1B, 3-(2,6-diisopropylphenyl)-pyridine], the “T Cell Proliferation” value in series [1] (test compound 2.5 μM) came out at 19.5 cpm × 10^−3; in series [1] (test compound 10 μM) it was 19 cpm × 10^−3; in series [1] (test compound 25 μM), 14 cpm × 10^−3.
Consider `Cc1ccc(C)n1-c1c(-c2ccccc2)cc(Cl)cc1-c1ccccc1`, for which the melting point (as a rule, the temperature of the solid-liquid transition) is 178 to 180 °C.

(Values after patent publication US20020065315A1, “Ion channel modulating agents” (priority 1999, published 2002).)
